These results are taken from patent US12029716B2, “Derivatives of korormicin useful as antibiotics” (Viotika Life Sciences Inc., priority 2015, dated 2024).

For one data set, the system named is Escherichia coli. The data set can be described thus: Growth of free-living bacteria in liquid medium (OD600). The conditions noted are these: 1.0 to 50 μM.
Data set [1] deals with primary Vascular Smooth Muscle cells. The data set can be described thus: Cell toxicity / proliferation assay, primary vascular smooth muscle cells. The format is cell-based, human. Here is the method:
(§1) Cell Toxicity Assay was performed as follows. HeLa, HEK293 and primary VSM cells were seeded at 5×10^3 cells/well in 96-well plates and incubated with Korormicin, PEG-2 or homoserine lactones in DMEM containing 1% fetal bovine serum (FBS; Invitrogen Corp.). After 48 hours, the number of living cells was determined by a colorimetric enzyme assay, based on a cytoplasmic enzyme activity present in viable cells.
Cells were seeded at 5×10^3 cells/well in 96-well plates and incubated with C. trachomatis in DMEM containing 1% fetal bovine serum (FBS; Invitrogen Corp.). After 48 hours, the number of living cells was determined by a colorimetric enzyme assay (CellTiter 96 Cell Proliferation Assay; Promega Corporation, Madison, WI) based on a cytoplasmic enzyme activity present in viable cells. (Cory et al. Use of an aqueous soluble tetrazolium/formazan assay for cell growth assays in culture. Cancer Commun. 1991; 3:207-212). The absorbance of a formazan product in tissue culture media was measured at 500 nm using a microplate reader.

In a further data set the test system is Chlamydia trachomatis. The data set can be described thus: C. trachomatis infection of HeLa cells (chlamydial inclusions, immunocytochemistry). The conditions noted are these: for MCC2, Minimal Chlamydicidal Concentration: after 2 passages with treatment. In kind it is cell-based. Here is the method:
Chlamydia trachomatis (C. trachomatis) propagation and treatment were carried out as follows. C. trachomatis was propagated in HeLa cells. The titer of C. trachomatis was determined in cyclohexamide-treated HeLa cells, and concentrations used were expressed as inclusion forming units (IFU) per mL.
Assessment of the level of infection was determined as follows. HeLa cells were seeded on glass coverslips in 24-well plates at 3×10^4 cells/well and inoculated with C. trachomatis and then treated with antibiotic (or other compounds of interest). After 48 hours, the infected cells were fixed with 100% methanol and then incubated with anti-Chlamydia monoclonal antibody. Inclusion bodies were visualized by staining with FITC-conjugated secondary antibody and DAPI as counterstaining. The samples were examined by a fluorescence microscopy. Number of inclusions was calculated per 100 cells.
Assessment of antichlamydial activity of Korormicin (Scheme shown in FIG. 1) and PEG-2 (Scheme shown in FIG. 2) were performed as follows. Cells were infected with C. trachomatis and treated with different concentrations of antibiotic of choice. After 48 h of C. trachomatis was collected (P1) and used to infect fresh cells. Subsequent collections of C. trachomatis were used to obtain P2, P3, P4 and P5 stocks of C. trachomatis. Dilution of C. trachomatis used to infect cells after treatment with PEG-2 had to be minimized in order to visualize inclusions. Last passage collection of C. trachomatis (P5) of Korormicin treatment and all collected of passages of C. trachomatis treated with PEG-2 were used to establish infectivity of treated Chlamydia (Scheme shown in FIG. 3).
For MIC50 (Minimal Concentration of the antibiotic that inhibits formation of chlamydial inclusions on 50%) determination HeLa cells were grown in 24-well or 96 well plates overnight prior to chlamydial inoculation. Elementary bodies were applied to the cells in small volume of SPG (0.22 M sucrose, 8.6 mM Na2HPO4, 3.8 mM KH2PO4, 5 mM glutamic acid, 0.2 μm-filtered, pH 7.4) and after 2 hours of incubation unattached elementary bodies were removed and infected cells were treated with different concentration of antibiotics in Dulbecco's modified Eagle's medium (DMEM, Invitrogen) with 5% fetal bovine serum (FBS, Invitrogen) in the presence of cycloheximide (1.0 μg/ml). After 42 h inclusions were visualized by immunocytochemistry.
To determent chlamydicidal effect of Korormicin (Scheme 1) and PEG-2 (Scheme 2) Hela cells were infected with C. trachomatis and treated with different concentrations of antibiotics. After 48 h of C. trachomatis was collected (P1) and used to infect fresh cells. Subsequent collections of C. trachomatis were used to obtain P2, P3, P4 and P5 stocks of C. trachomatis. Dilution of C. trachomatis used to infect cells after treatment with PEG-2 had to be minimized in order to visualize inclusions. (See Scheme 2 below). Last passage collection of C. trachomatis (P5) of Korormicin treatment and all collected of passages of C. trachomatis treated with PEG-2 were used to establish infectivity of treated C. trachomatis. Minimal chlamydicidal concentration (MCC2) for Korormicin, PEG-2 and PEG-2S was calculated after 2 passages of infection with treatment and reflect inhibition of infection for more than 90%. In all experiments inclusions were visualized by immunocytochemistry.
Cells were seeded on glass coverslips in 24-well plates (2-4×10^4 cells/well) or on glass-bottom 96 well plates (10^4 cells/well), and after overnight inoculated with C. trachomatis. After 42 hours, the infected cells were fixed with 90% acetone (or 100% methanol in case of 96 well plates) and then incubated with anti-Chlamydia antibody (Thermo Fisher Scientific). Alexa Fluor 488-conjugated anti-rabbit IgG (Molecular Probes) was used as secondary antibody. DAPI staining solution (300 nM) was added to the coverslips to identify nuclei. […]

Another data set relates to Lactococcus lactis. The data set can be described thus: Growth of free-living bacteria in liquid medium (OD600). The conditions noted are these: 1.0 to 50 μM.
Another data set has as its system C. difficile ATCC 700057. The data set can be described thus: Susceptibility test of Clostridium difficile growth. The format is cell-based. Particulars: 0.5 μM-50 μM. Here is the method: Evaluation of a PEG-2S against Clostridium difficile (C. difficile ATCC 700057) was performed by Drop method on pre-reduced BAK plates according to Performance Standards for Antimicrobial Susceptibility Testing (Methods for Antimicrobial Susceptibility Testing of Anaerobic Bacteria; Approved Standard—Eighth Edition; Volume 32 Number 5, 2012).

A further data set has as its system Enterococcus faecalis. The data set can be described thus: Growth of free-living bacteria in liquid medium (OD600). The conditions noted are these: 1.0 to 50 μM.
For data set [2], the system named is HEK293 cells infected with C. trachomatis. The data set can be described thus: Intracellular pH in HEK293 cells infected with C. trachomatis. In kind it is cell-based, human. How it is done: (§2) pHrodo™ Green AM and CoroNa Green Sodium Indicator (both Molecular Probes, Invitrogen) were used to measure intracellular pH (pHi) and intracellular sodium (Na^+i) concentration. HEK293 cells were seeded on 24 well plates and infected with C. trachomatis after overnight incubation in DMEM with 5% FBS. After 2 hours of incubation with C. trachomatis cells were treated with different concentrations of PEG-2S and subjected to pHi and Na^+i measurement at different time points according to manufacturer's protocols. In all assessments calibration curves were performed prior to the experiments. Fluorescent inverted microscope (TE-2000s Nikon) was used to obtain images and mean intensity was quantified using NIS Elements imaging software (Nikon, Mississauga, ON).

Another data set can be described thus: physchem. The format is physicochemical. Particulars: organic solvent or mixture.
For the next data set, the target named is T1, Na^+-NQR (Vibrio cholerae serotype O1, UniProt Q9KPS2).
T1 construct: being placed in its native membrane; endogenous in cells; sub-bacterial membrane vesicles made by French press
In words: Na+-NQR activity (dNADH oxidation) in sub-bacterial V. cholerae vesicles. The format is biochemical.

In data set [3] the test system is HEK293 cells infected with C. trachomatis. The data set can be described thus: Intracellular sodium in HEK293 cells infected with C. trachomatis. Particulars: 1 and 2.5 μM (low μM). In kind it is cell-based, human. Here is the method: as §2
Data set [4] deals with HeLa cells infected with C. trachomatis. The data set can be described thus: Intracellular acidification of HeLa cells infected with C. trachomatis. The format is cell-based, human. An excerpt:
The mechanism of action of PEG-2 was also investigated by monitoring intracellular acidification of infected cells treated with PEG-2. If PEG-2 is working through the inhibition of Na^+-NQR and a sodium motive force, then it would be expected to have an effect on intracellular Na^+ and H^+ concentrations within infected cells. HeLa cells were infected with C. trachomatis and intracellular acidification was monitored with fluorescent indicator dyes.

The subject of a further data set is HEK293 cells. The data set can be described thus: Cell toxicity assay, HEK293 cells. The conditions noted are these: HEK293, concentrations of up to 50 μM. The format is cell-based, human. How it is done:
as §1

Another data set deals with HeLa cell line. In words: Cell toxicity assay, HeLa cells. In kind it is cell-based, human. The conditions noted are these: HeLa, concentrations of up to 50 μM. Here is the method: as §1
Setting [5] is: primary Vascular Smooth Muscle cells.
Where [6] appears, read: inhibition of infection for more than 90%.
Setting [7] is: read-out: MIC502, Minimal Inhibitory Concentration after the second treatment, second treatment.

What is called solubility is the dissolved amount per volume that the medium holds.

In brackets after ≈: the same amount, converted by molar mass. Entries after “also recorded” stand apart in the source; their conditions may differ. Like-named read-outs stand apart in the source and are kept apart here.

For `CCCCCCC/C=C/C=C\[C@H](O)CC(=O)NC1=C[C@](C)(CC)OC1=O` [PEG-2S], the effect on growth result with Escherichia coli is given as “did not affect the growth”; in the data set on Lactococcus lactis, “did not affect the growth”; in the data set on C. difficile ATCC 700057, “does not affect the growth”; with Enterococcus faecalis, “did not affect the growth”. In addition, the “toxicity to primary cells (in words)” value in [1] (setting [5]) was “low cytotoxicity”. The IC50 with Chlamydia trachomatis (Chlamydia trachomatis, HeLa, read-out: IC50(Chl), half-maximal inhibition of the proliferation of Chlamydia trachomatis, cell culture experimental model) came out at 700 nM; in the data set on Chlamydia trachomatis (setting [7]) it was 250 nM; on Na^+-NQR, 1.76 nM. Further, the “MCC2, Minimal Chlamydicidal Concentration” value with Chlamydia trachomatis came to 0.36 µg/mL; with Chlamydia trachomatis (setting [6]), 1.0 µM. The “MIC501, Minimal Inhibitory Concentration after the treatment” value with Chlamydia trachomatis (first treatment) was 0.25 µg/mL (≈ 0.688 µM). Further, in the data set with Chlamydia trachomatis (second treatment), the “MIC502, Minimal Inhibitory Concentration after the second treatment” value was found to be 0.09 µg/mL (≈ 0.248 µM). In addition, in data set [2] (1.0 μM, within first 5 hours of infection), the “internal pH of infected cells” value was roughly 7.6. The “effect on chlamydia-induced acidification” value in [2] (2.5 μM) is recorded as “prevented the chlamydia-induced acidification completely”. In addition, the “effect on changes of cytoplasmic pH” value in [2] (1 and 2.5 μM) is on record as “prevents changes of cytoplasmic pH”. For the same molecule, the solubility in “physchem” was less than 25 mM. Moreover, the “effect on intracellular sodium accumulation / changes of [Na+]” value in data set [3] was “sensitive; also recorded: prevents changes”.
Regarding `CCCCCCC/C=C/C=C\[C@H](O)CC(=O)NC1=C[C@](C)(CC)OC1=O` [PEG-2], the “toxicity to primary cells (in words)” value in [1] (setting [5]) is “low cytotoxicity; also recorded: non-toxic”. Moreover, the toxic effects result in data set [1] (primary Vascular Smooth Muscle cells, concentrations of up to 50 μM) is reported as “no toxic effects”; with HEK293 cells, “no toxic effects”; in the data set with HeLa cell line it was “no toxic effects”. Moreover, in data set [1] (up to 20 μM), the “toxic effects on primary cell cultures (VSMC)” value is reported as “no toxic effects”. In data set [4], the “delay of the initial C. trachomatis-induced acidification” value is reported as “at least 2 hours”. Also, the “effect on the following acidification” value in data set [4] is reported as “diminishes the following acidification”. The “efficacy against C. trachomatis infection (in words)” value in the data set with Chlamydia trachomatis is given as “effective”. Besides, the “decrease of infectivity (number of chlamydial inclusions in the next passage)” value with Chlamydia trachomatis (1st treatment, 15 μM) is roughly 5 fold. Moreover, the “number of inclusions, of control” value in the data set with Chlamydia trachomatis (5 consecutive treatments, 15 μM) came to 0.01%. The “MCC2, Minimal Chlamydicidal Concentration” value with Chlamydia trachomatis was 5.45 µg/mL; with Chlamydia trachomatis (setting [6]) it was 15 µM. The “number of detectable inclusions lower” value in the data set on Chlamydia trachomatis (after 5 consecutive treatments, 15 μM) is on record as 10,000 times. For the same molecule, in the data set with Chlamydia trachomatis (first treatment), the “MIC501, Minimal Inhibitory Concentration after the treatment” value was determined as 3.63 µg/mL (≈ 9.99 µM). Also, in the data set on Chlamydia trachomatis (fluorescence microscopy), the “size of chlamydial inclusions” value was “noticeably smaller”. For the same molecule, the IC50 came out at 10000 nM in the data set with Chlamydia trachomatis (read-out: MIC501, Minimal Inhibitory Concentration after the treatment, first treatment, 50% inhibition of inclusion formation) and 4000 nM in the data set with Chlamydia trachomatis (setting [7]). Further, in the data set with Chlamydia trachomatis (second treatment), the “MIC502, Minimal Inhibitory Concentration after the second treatment” value stood at 1.45 µg/mL (≈ 3.99 µM).
